From publication PMC4447944 (The Journal of Biological Chemistry, 2015)

How the values were obtained:
hCIT = target: T1, hCIT (Homo sapiens, UniProt O14578); test: KINOMEscan; format: binding
T1 construct: purchased DiscoverX

hDYRK1B = target: T2, hDYRK1B (Homo sapiens, UniProt Q9Y463); test: KINOMEscan; format: binding; settings: read-out: Inhibition at the 20 μM dose
T2 construct: purchased DiscoverX

hAURKA = target: T3, hAURKA (Homo sapiens, UniProt O14965); test: KINOMEscan; format: binding
T3 construct: purchased DiscoverX

hMELK = target: T4, hMELK (Homo sapiens, UniProt Q14680); test: KINOMEscan; format: binding
T4 construct: purchased DiscoverX

hABL1(F317L) = target: T5, hABL1(F317L) (Homo sapiens, UniProt P00519, F317L); test: KINOMEscan; format: binding
T5 construct: purchased DiscoverX (KINOMEscan platform)

hDMPK2 = target: T6, hDMPK2 (Homo sapiens, UniProt Q6DT37); test: KINOMEscan; format: binding
T6 construct: purchased DiscoverX (KINOMEscan platform)

hDYRK2 = target: T7, hDYRK2 (Homo sapiens, UniProt Q92630); test: KINOMEscan; format: binding
T7 construct: purchased DiscoverX

hDCAMKL1 = target: T8, hDCAMKL1 (Homo sapiens, UniProt O15075); test: KINOMEscan; format: binding
T8 construct: purchased DiscoverX (KINOMEscan platform)

hERK1 = target: T9, hERK1 (Homo sapiens, UniProt P27361); test: KINOMEscan; format: binding
T9 construct: purchased DiscoverX
T9 sequence (P27361 whole entry): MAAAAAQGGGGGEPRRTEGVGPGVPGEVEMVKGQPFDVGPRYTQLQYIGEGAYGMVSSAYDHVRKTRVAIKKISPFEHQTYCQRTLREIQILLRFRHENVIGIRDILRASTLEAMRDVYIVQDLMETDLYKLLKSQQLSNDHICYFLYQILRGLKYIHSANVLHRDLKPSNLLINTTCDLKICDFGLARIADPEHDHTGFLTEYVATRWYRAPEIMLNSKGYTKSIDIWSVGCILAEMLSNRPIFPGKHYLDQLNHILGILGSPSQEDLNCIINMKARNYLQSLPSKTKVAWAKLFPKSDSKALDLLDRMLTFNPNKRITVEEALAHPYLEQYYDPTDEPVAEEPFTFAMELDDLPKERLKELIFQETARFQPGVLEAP

hMARK2 = target: T10, hMARK2 (Homo sapiens, UniProt Q7KZI7); test: KINOMEscan; format: binding
T10 construct: purchased DiscoverX

hANKK1 = target: T11, hANKK1 (Homo sapiens, UniProt Q8NFD2); test: KINOMEscan; format: binding
T11 construct: purchased DiscoverX

hRSK4(Kin.Dom.1-N-term) = target: T12, hRSK4(Kin.Dom.1-N-term) (Homo sapiens, UniProt Q9UK32); test: KINOMEscan; format: binding
T12 construct: hRSK4(Kin.Dom.1-N-term); purchased DiscoverX (KINOMEscan platform)

hPPARδ = target: T13, hPPARδ (Homo sapiens, UniProt Q03181); test: Nuclear hormone receptor assay (Eurofins-CEREP); settings: read-out: Relative IC50
T13 construct: Eurofins-CEREP

hMAP4K5 = target: T14, hMAP4K5 (Homo sapiens, UniProt Q9Y4K4); test: KINOMEscan; format: binding
T14 construct: purchased DiscoverX
T14 sequence (Q9Y4K4 whole entry): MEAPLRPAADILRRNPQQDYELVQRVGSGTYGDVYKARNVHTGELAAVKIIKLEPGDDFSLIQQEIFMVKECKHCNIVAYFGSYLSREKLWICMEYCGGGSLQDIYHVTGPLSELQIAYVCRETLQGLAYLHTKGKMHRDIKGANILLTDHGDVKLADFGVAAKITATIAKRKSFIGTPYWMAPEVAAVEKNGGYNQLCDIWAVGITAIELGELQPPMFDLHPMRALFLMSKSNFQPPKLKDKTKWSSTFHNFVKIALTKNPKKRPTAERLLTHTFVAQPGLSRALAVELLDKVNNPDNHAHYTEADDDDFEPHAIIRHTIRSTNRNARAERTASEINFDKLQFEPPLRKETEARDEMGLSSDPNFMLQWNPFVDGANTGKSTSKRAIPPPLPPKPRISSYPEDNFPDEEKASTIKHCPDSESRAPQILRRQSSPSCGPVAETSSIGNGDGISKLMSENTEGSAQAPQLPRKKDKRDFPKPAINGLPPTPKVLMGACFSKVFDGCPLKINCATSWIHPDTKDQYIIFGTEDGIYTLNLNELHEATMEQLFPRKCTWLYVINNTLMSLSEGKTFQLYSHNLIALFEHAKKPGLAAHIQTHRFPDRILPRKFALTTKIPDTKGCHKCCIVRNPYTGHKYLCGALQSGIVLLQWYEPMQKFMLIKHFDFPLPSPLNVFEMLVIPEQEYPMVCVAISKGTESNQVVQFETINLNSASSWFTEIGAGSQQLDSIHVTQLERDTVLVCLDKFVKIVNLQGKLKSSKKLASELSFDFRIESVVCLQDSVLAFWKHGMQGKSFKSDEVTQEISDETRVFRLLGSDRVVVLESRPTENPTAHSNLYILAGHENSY

hHCK = target: T15, hHCK (Homo sapiens, UniProt P08631); test: KINOMEscan; format: binding
T15 construct: purchased DiscoverX

hEPHA6 = target: T16, hEPHA6 (Homo sapiens, UniProt Q9UF33); test: KINOMEscan; format: binding
T16 construct: purchased DiscoverX

hMEK5 = target: T17, hMEK5 (Homo sapiens, UniProt Q13163); test: KINOMEscan; format: binding
T17 construct: purchased DiscoverX

hBRAF(V600E) = target: T18, hBRAF(V600E) (Homo sapiens, UniProt P15056, V600E); test: KINOMEscan; format: binding
T18 construct: purchased DiscoverX

hOPRm1 = hOPRm1 (Homo sapiens, UniProt P35372); test: cAMP Potentiation (Eurofins-CEREP); settings: @ 1 μM
hEIF2AK1 = target: T19, hEIF2AK1 (Homo sapiens, UniProt Q9BQI3); test: KINOMEscan; format: binding
T19 construct: purchased DiscoverX

hMKNK2 = target: T20, hMKNK2 (Homo sapiens, UniProt Q9HBH9); test: KINOMEscan; format: binding
T20 construct: purchased DiscoverX

hIRAK3 = target: T21, hIRAK3 (Homo sapiens, UniProt Q9Y616); test: KINOMEscan; format: binding
T21 construct: purchased DiscoverX (KINOMEscan panel)

hEPHA2 = target: T22, hEPHA2 (Homo sapiens, UniProt P29317); test: KINOMEscan; format: binding
T22 construct: purchased DiscoverX

hCSK = target: T23, hCSK (Homo sapiens, UniProt P41240); test: KINOMEscan; format: binding
T23 construct: purchased DiscoverX (KINOMEscan platform)

hWEE2 = target: T24, hWEE2 (Homo sapiens, UniProt P0C1S8); test: KINOMEscan; format: binding
T24 construct: purchased DiscoverX

hM2 = target: T25, hM2 (Homo sapiens, UniProt P08172); test: β-arrestin Potentiation (Eurofins-CEREP); settings: @ 10 μM
T25 sequence (P08172 1-466): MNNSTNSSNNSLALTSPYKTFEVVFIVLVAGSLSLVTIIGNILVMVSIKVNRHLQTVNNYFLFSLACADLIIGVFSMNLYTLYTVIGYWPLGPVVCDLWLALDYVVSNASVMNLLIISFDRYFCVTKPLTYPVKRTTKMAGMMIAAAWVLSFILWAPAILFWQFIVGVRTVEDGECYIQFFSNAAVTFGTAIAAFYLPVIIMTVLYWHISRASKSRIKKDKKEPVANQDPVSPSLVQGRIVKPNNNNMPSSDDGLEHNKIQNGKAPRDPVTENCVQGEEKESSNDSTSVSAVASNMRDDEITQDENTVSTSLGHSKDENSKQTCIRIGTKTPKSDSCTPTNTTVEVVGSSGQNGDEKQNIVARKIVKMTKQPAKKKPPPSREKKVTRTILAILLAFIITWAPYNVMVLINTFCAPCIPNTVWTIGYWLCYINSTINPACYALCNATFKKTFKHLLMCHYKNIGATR

hRXRα = target: T26, hRXRα (Homo sapiens, UniProt P19793); test: Nuclear hormone receptor assay (Eurofins-CEREP); settings: read-out: Relative IC50
T26 construct: Eurofins-CEREP
T26 sequence (P19793 whole entry): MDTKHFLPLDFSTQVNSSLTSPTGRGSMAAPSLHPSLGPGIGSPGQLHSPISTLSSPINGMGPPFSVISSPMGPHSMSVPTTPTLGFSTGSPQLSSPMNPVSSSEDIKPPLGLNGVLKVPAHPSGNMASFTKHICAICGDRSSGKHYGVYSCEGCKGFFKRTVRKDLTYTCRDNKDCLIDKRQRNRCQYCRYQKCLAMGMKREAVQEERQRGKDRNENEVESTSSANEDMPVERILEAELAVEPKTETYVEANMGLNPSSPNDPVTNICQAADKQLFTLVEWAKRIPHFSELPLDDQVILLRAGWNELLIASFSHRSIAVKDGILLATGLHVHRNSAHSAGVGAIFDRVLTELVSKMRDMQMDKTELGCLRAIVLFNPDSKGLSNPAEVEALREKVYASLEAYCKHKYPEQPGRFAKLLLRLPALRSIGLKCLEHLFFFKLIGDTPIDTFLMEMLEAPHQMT

hACVR1B = target: T27, hACVR1B (Homo sapiens, UniProt P36896); test: KINOMEscan; format: binding
T27 construct: purchased DiscoverX (KINOMEscan platform)

hRIOK2 = target: T28, hRIOK2 (Homo sapiens, UniProt Q9BVS4); test: KINOMEscan; format: binding
T28 construct: purchased DiscoverX (KINOMEscan platform)

hTAOK2 = target: T29, hTAOK2 (Homo sapiens, UniProt Q9UL54); test: KINOMEscan; format: binding
T29 construct: purchased DiscoverX
T29 sequence (Q9UL54 whole entry): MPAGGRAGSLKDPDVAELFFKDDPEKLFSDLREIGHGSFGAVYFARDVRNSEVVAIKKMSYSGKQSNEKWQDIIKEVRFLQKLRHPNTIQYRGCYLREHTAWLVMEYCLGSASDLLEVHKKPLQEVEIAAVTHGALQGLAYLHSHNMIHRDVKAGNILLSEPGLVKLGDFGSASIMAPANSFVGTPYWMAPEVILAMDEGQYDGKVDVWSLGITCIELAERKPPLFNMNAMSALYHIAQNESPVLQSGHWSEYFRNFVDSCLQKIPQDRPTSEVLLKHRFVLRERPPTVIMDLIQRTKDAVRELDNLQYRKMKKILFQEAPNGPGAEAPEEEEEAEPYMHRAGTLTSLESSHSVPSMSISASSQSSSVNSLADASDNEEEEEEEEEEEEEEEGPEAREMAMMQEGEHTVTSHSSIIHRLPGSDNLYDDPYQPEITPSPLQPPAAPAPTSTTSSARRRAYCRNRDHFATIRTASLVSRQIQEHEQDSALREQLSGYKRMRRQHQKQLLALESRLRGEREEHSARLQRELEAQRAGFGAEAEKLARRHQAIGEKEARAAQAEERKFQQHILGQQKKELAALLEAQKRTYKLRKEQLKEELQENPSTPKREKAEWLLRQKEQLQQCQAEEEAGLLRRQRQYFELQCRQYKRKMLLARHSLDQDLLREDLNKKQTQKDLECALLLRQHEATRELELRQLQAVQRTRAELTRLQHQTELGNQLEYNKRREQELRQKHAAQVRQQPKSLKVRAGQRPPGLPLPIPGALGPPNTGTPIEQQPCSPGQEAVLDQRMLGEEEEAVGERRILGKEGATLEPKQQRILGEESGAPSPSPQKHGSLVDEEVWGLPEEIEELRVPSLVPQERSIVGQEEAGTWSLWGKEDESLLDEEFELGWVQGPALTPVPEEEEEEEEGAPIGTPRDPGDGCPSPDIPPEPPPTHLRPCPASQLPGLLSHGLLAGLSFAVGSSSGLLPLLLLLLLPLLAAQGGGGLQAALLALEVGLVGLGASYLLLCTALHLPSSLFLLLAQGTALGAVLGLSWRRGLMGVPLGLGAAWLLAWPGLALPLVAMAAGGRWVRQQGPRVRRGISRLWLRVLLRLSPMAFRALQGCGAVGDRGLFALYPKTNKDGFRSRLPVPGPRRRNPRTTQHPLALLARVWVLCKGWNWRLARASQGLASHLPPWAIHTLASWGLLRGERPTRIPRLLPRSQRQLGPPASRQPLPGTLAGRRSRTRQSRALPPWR

hEGFR(L861Q) = target: T30, hEGFR(L861Q) (Homo sapiens, UniProt P00533, L861Q); test: KINOMEscan; format: binding
T30 construct: purchased DiscoverX

hERK5 = target: T31, hERK5 (Homo sapiens, UniProt Q13164); test: KINOMEscan; format: binding
T31 construct: purchased DiscoverX

hJAK3(JH1Dom.-catalytic) = target: T32, hJAK3(JH1Dom.-catalytic) (Homo sapiens, UniProt P52333); test: KINOMEscan; format: binding
T32 construct: hJAK3(JH1Dom.-catalytic); purchased DiscoverX (KINOMEscan panel)

hRSK2(Kin.Dom.1-N-term) = target: T33, hRSK2(Kin.Dom.1-N-term) (Homo sapiens, UniProt P51812); test: KINOMEscan; format: binding
T33 construct: hRSK2(Kin.Dom.1-N-term); purchased DiscoverX (KINOMEscan platform)

T1 sequence (O14578 whole entry): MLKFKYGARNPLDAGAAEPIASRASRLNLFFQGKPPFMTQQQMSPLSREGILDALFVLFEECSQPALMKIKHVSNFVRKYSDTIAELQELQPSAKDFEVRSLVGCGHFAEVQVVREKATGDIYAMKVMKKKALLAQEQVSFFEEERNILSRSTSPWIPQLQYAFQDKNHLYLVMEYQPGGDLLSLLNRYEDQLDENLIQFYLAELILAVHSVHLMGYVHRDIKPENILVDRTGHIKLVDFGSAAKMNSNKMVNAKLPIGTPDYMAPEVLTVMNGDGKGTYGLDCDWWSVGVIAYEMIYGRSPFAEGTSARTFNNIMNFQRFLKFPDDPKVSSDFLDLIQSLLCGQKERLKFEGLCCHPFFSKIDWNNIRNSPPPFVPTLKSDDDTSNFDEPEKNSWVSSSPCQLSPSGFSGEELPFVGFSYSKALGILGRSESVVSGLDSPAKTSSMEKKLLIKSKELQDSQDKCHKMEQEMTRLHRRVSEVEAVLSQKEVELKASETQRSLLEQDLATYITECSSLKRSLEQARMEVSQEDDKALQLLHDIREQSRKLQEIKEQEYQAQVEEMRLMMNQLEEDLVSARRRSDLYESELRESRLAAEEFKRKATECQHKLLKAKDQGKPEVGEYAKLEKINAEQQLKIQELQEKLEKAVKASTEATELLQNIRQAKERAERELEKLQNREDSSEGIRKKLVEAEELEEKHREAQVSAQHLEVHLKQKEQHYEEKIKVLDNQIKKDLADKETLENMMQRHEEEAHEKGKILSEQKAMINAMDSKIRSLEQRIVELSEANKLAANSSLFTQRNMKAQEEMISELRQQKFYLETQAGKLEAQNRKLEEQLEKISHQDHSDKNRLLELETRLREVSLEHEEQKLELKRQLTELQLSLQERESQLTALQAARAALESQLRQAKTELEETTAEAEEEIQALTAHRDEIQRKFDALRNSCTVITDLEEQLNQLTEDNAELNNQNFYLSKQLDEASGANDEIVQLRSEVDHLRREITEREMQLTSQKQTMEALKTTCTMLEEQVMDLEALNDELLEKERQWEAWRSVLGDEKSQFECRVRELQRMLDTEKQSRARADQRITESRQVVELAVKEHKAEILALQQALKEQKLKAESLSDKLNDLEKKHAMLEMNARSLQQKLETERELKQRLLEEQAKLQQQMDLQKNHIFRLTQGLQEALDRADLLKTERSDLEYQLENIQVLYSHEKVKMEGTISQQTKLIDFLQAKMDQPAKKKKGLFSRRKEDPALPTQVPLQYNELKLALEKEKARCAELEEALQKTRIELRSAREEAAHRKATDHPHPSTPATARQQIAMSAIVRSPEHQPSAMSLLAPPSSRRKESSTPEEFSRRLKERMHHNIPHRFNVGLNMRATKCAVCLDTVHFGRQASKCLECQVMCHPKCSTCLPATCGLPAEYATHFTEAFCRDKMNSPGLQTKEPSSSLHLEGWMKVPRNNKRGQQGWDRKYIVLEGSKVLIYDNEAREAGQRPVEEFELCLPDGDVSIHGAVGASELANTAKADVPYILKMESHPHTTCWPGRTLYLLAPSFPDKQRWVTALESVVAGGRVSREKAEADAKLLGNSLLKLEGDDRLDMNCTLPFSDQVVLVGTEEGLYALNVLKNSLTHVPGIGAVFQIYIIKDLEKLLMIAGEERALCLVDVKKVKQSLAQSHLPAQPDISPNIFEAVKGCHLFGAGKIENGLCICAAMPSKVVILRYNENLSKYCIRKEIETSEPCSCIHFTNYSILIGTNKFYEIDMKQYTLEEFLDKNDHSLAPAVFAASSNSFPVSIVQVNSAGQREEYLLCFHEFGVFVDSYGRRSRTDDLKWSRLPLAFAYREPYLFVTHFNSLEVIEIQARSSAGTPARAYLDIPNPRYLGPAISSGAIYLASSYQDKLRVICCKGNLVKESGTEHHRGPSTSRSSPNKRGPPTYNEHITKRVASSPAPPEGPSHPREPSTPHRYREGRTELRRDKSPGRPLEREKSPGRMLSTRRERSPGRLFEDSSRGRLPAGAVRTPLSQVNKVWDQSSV

SMILES: Cc1cn(CCN2CCN(c3ccccc3-c3cc(C#N)cc(C(=O)NCCCN4CCCC4)c3)CC2)c2ccccc12 [LLY-507, 3-cyano-5-{2-[4-[2-(3-methylindol-1-yl)ethyl]piperazin-1-yl]-phenyl}-N-[(3-pyrrolidin-1-yl)propyl]benzamide]
- IC50 (hCIT): > 20 µM
- inhibition at 20 µM (hDYRK1B): < 50%
- IC50 (hAURKA): > 20 µM
- IC50 (hMELK): > 20 µM
- IC50 (hABL1(F317L)): > 20 µM
- IC50 (hDMPK2): > 20 µM
- IC50 (hDYRK2): > 20 µM
- IC50 (hDCAMKL1): > 20 µM
- IC50 (hERK1): > 20 µM
- IC50 (hMARK2): > 20 µM
- IC50 (hANKK1): > 20 µM
- IC50 (hRSK4(Kin.Dom.1-N-term)): > 20 µM
- IC50 (hPPARδ): > 10 µM
- IC50 (hMAP4K5): > 20 µM
- IC50 (hHCK): > 20 µM
- IC50 (hEPHA6): > 20 µM
- IC50 (hMEK5): > 20 µM
- IC50 (hBRAF(V600E)): > 20 µM
- % Effect, Potentiation (hOPRm1): 9.6%
- IC50 (hEIF2AK1): > 20 µM
- IC50 (hMKNK2): > 20 µM
- IC50 (hIRAK3): > 20 µM
- IC50 (hEPHA2): > 20 µM
- IC50 (hCSK): > 20 µM
- IC50 (hWEE2): > 20 µM
- % Effect, Potentiation (hM2): -32.2%
- IC50 (hRXRα): > 10 µM
- IC50 (hACVR1B): > 20 µM
- IC50 (hRIOK2): > 20 µM
- IC50 (hTAOK2): > 20 µM
- IC50 (hEGFR(L861Q)): > 20 µM
- IC50 (hERK5): > 20 µM
- IC50 (hJAK3(JH1Dom.-catalytic)): > 20 µM
- IC50 (hRSK2(Kin.Dom.1-N-term)): > 20 µM
